Measurements as given in ChEMBL document CHEMBL1134755, “B-ring substituted 5,7-dihydroxyflavonols with high-affinity binding to P-glycoprotein responsible for cell multidrug resistance” (Bioorg Med Chem Lett, 2001).
pKd: −log10 of the molar value.

Experiments:
[1] = biological target: T1, ATP-dependent translocase ABCB1 (Mus musculus, UniProt P21447); assay: Binding affinity to nucleotide-binding domain (NBD2) of P-Glycoprotein
[2] = biological target: T1, ATP-dependent translocase ABCB1; assay: Percent of maximal quenching fluorescence for binding analysis to nucleotide-binding domain (NBD2) of P-Glycoprotein was determined

T1 sequence (P21447 whole entry, the tested form may be a part): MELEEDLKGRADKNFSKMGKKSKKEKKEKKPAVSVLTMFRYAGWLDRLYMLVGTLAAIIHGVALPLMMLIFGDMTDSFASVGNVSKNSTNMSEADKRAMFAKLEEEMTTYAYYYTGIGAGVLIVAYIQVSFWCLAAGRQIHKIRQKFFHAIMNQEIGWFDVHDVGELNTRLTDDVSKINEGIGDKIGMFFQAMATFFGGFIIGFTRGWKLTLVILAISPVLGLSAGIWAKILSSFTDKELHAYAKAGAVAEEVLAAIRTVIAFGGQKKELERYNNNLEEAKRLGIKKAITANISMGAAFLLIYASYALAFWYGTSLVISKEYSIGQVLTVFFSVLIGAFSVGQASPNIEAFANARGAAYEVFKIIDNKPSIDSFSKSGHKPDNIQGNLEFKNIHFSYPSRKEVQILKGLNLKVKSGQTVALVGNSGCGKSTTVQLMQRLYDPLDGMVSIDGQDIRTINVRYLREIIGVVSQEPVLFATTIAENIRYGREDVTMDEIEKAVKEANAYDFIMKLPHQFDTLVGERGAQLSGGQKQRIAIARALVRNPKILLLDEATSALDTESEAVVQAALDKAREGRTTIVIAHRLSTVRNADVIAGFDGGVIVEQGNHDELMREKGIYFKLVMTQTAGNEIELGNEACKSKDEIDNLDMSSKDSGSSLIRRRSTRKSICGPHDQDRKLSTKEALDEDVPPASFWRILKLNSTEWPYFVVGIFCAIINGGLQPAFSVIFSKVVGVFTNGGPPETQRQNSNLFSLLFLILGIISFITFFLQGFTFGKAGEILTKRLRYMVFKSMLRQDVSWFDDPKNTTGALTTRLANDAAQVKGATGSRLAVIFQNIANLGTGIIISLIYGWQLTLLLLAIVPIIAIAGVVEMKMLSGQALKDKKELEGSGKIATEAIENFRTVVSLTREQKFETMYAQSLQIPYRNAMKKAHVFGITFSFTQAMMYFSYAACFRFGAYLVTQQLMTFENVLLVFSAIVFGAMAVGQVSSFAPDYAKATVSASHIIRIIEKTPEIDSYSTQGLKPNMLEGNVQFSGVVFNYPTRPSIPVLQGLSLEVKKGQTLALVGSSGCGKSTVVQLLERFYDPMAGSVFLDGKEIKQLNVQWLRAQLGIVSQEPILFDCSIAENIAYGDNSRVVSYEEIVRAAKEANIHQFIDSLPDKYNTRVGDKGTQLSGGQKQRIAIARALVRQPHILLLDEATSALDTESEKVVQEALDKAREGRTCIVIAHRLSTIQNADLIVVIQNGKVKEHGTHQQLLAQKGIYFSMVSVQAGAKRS

| Compound | pKd [1] | Delta Fmax [2] |
| --- | --- | --- |
| O=c1c(O)c(-c2ccc(F)cc2)oc2cc(O)cc(O)c12 | 5.17 | 91.6% |
| O=c1c(O)c(-c2ccc(I)cc2)oc2cc(O)cc(O)c12 | 5.97 | 95.5% |
| O=c1c(O)c(-c2ccccc2)oc2cc(O)cc(O)c12 [GALANGIN] | 5.23 | 95% |
| COc1ccc(-c2oc3cc(O)cc(O)c3c(=O)c2O)cc1 [KAEMPFERIDE] | 5.30 | 96.7% |
| O=c1c(O)c(-c2ccc(O)cc2)oc2cc(O)cc(O)c12 [KAEMPFEROL] | 5.17 | 97.6% |

The remaining compounds from weak to strong by pKd [1], led by results:

| pKd [1] | Delta Fmax [2] | Compound |
| --- | --- | --- |
| 5.40 | 85.3% | O=c1c(O)c(-c2ccc(Cl)cc2Cl)oc2cc(O)cc(O)c12 |
| 5.70 | 84.6% | O=c1c(O)c(-c2ccc(C(c3ccccc3)c3ccccc3)cc2)oc2cc(O)cc(O)c12 |
| 7.24 | 62.1% | CCCCCCCCc1ccc(-c2oc3cc(O)cc(O)c3c(=O)c2O)cc1 |
